pIC50: −log10 of the molar value.
System: 695427-040-R-J1-PDC complex spheroid viability
Assay: Anticancer human tumor 695427-040-R-J1-PDC patient-derived colon adenocarcinoma cell line growth inhibition [RAS]
Details: for pIC50: curve of first compound; for viability, T/C: stronger effect = lower value
In short: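 Agents were tested in combination matrices in half-log decrements from a top concentration at or near clinical Cmax (10 microM if undetermined). Targets were multi-cell spheroids of tumour lines plus HUVEC and MSC stromal cells.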

[1] = second compound 0.000949 µM, first compound 0.0316 µM
[2] = second compound 0.000949 µM, first compound 0.1 µM
[3] = second compound 0.000949 µM, first compound 0.316 µM
[4] = second compound 0.000949 µM, first compound 1 µM
[5] = second compound 0.000949 µM, first compound 3.16 µM
[6] = second compound 0.000949 µM, first compound 10 µM
[7] = second compound 0.003 µM, first compound 0.0316 µM
[8] = second compound 0.003 µM, first compound 0.1 µM
[9] = second compound 0.003 µM, first compound 0.316 µM
[10] = second compound 0.003 µM, first compound 1 µM
[11] = second compound 0.003 µM, first compound 3.16 µM
[12] = second compound 0.003 µM, first compound 10 µM
[13] = second compound 0.00949 µM, first compound 0.0316 µM
[14] = second compound 0.00949 µM, first compound 0.1 µM
[15] = second compound 0.00949 µM, first compound 0.316 µM
[16] = second compound 0.00949 µM, first compound 1 µM
[17] = second compound 0.00949 µM, first compound 3.16 µM
[18] = second compound 0.00949 µM, first compound 10 µM
[19] = second compound 0.03 µM, first compound 0.0316 µM
[20] = second compound 0.03 µM, first compound 0.1 µM
[21] = second compound 0.03 µM, first compound 0.316 µM
[22] = second compound 0.03 µM, first compound 1 µM
[23] = second compound 0.03 µM, first compound 3.16 µM
[24] = second compound 0.03 µM, first compound 10 µM
[25] = second compound 0.0949 µM, first compound 0.0316 µM
[26] = second compound 0.0949 µM, first compound 0.1 µM
[27] = second compound 0.0949 µM, first compound 0.316 µM
[28] = second compound 0.0949 µM, first compound 1 µM
[29] = second compound 0.0949 µM, first compound 3.16 µM
[30] = second compound 0.0949 µM, first compound 10 µM
[31] = second compound 0.3 µM, first compound 0.0316 µM
[32] = second compound 0.3 µM, first compound 0.1 µM
[33] = second compound 0.3 µM, first compound 0.316 µM
[34] = second compound 0.3 µM, first compound 1 µM
[35] = second compound 0.3 µM, first compound 3.16 µM
[36] = second compound 0.3 µM, first compound 10 µM
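Also: viability read after seven days of drug exposure.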
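For viability, T/C in this document: 100% = DMSO vehicle control viability.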

SMILES: CC1(O)CCCC1n1c(=O)c(C(F)F)cc2cnc(NC3CCN(S(C)(=O)=O)CC3)nc21 (stereo unspecified) + CCn1c(-c2cc(N3CCN(C)CC3)cnc2C(C)OC)c2c3cc(ccc31)-c1csc(n1)CC(NC(=O)C1CC1C)C(=O)N1CCCC(N1)C(=O)OCC(C)(C)C2
- pIC50 (second compound 0.000949 µM): < 5.00
- pIC50 (second compound 0.003 µM): < 5.00
- pIC50 (second compound 0.00949 µM): < 5.00
- pIC50 (second compound 0.03 µM): 5.34
- pIC50 (second compound 0.0949 µM): > 7.50
- pIC50 (second compound 0.3 µM): > 7.50
- viability, T/C [1]: 112%
- viability, T/C [2]: 74.6%
- viability, T/C [3]: 93.8%
- viability, T/C [4]: 105%
- viability, T/C [5]: 114%
- viability, T/C [6]: 74.5%
- viability, T/C [7]: 87.3%
- viability, T/C [8]: 92.8%
- viability, T/C [9]: 91.8%
- viability, T/C [10]: 92.7%
- viability, T/C [11]: 109%
- viability, T/C [12]: 71%
- viability, T/C [13]: 95.7%
- viability, T/C [14]: 80.8%
- viability, T/C [15]: 85.2%
- viability, T/C [16]: 78.3%
- viability, T/C [17]: 81.8%
- viability, T/C [18]: 52%
- viability, T/C [19]: 62.4%
- viability, T/C [20]: 71.5%
- viability, T/C [21]: 59.1%
- viability, T/C [22]: 57.1%
- viability, T/C [23]: 59.8%
- viability, T/C [24]: 32.7%
- viability, T/C [25]: 44.2%
- viability, T/C [26]: 42.1%
- viability, T/C [27]: 50.3%
- viability, T/C [28]: 50.8%
- viability, T/C [29]: 50.9%
- viability, T/C [30]: 25.6%
- viability, T/C [31]: 40.5%
- viability, T/C [32]: 42%
- viability, T/C [33]: 41.2%
- viability, T/C [34]: 36.5%
- viability, T/C [35]: 44.2%
- viability, T/C [36]: 25.2%

SMILES: CCC(CC)c1cc(NC2CCC(N)C2)n2nccc2n1 (stereo unspecified) + CCn1c(-c2cc(N3CCN(C)CC3)cnc2C(C)OC)c2c3cc(ccc31)-c1csc(n1)CC(NC(=O)C1CC1C)C(=O)N1CCCC(N1)C(=O)OCC(C)(C)C2
- pIC50 (second compound 0.000949 µM): 5.76
- pIC50 (second compound 0.003 µM): 5.85
- pIC50 (second compound 0.00949 µM): 6.14
- pIC50 (second compound 0.03 µM): 5.92
- pIC50 (second compound 0.0949 µM): > 7.50
- pIC50 (second compound 0.3 µM): > 7.50
- viability, T/C [1]: 104%
- viability, T/C [2]: 84.6%
- viability, T/C [3]: 83.7%
- viability, T/C [4]: 84.6%
- viability, T/C [5]: 13.7%
- viability, T/C [6]: 12.3%
- viability, T/C [7]: 92.8%
- viability, T/C [8]: 99.8%
- viability, T/C [9]: 85.1%
- viability, T/C [10]: 66.4%
- viability, T/C [11]: 9.9%
- viability, T/C [12]: 10.9%
- viability, T/C [13]: 90.3%
- viability, T/C [14]: 72.1%
- viability, T/C [15]: 69.9%
- viability, T/C [16]: 45.8%
- viability, T/C [17]: 10.7%
- viability, T/C [18]: 12.9%
- viability, T/C [19]: 51%
- viability, T/C [20]: 56.1%
- viability, T/C [21]: 64.8%
- viability, T/C [22]: 58.7%
- viability, T/C [23]: 7.23%
- viability, T/C [24]: 15.1%
- viability, T/C [25]: 44.6%
- viability, T/C [26]: 47.3%
- viability, T/C [27]: 43.9%
- viability, T/C [28]: 41.6%
- viability, T/C [29]: 11%
- viability, T/C [30]: 15.3%
- viability, T/C [31]: 29.7%
- viability, T/C [32]: 39.4%
- viability, T/C [33]: 45.8%
- viability, T/C [34]: 27.8%
- viability, T/C [35]: 6.23%
- viability, T/C [36]: 15.5%

SMILES: CCN1CCN(Cc2ccc(Nc3ncc(F)c(-c4cc(F)c5nc(C)n(C(C)C)c5c4)n3)nc2)CC1 + CCn1c(-c2cc(N3CCN(C)CC3)cnc2C(C)OC)c2c3cc(ccc31)-c1csc(n1)CC(NC(=O)C1CC1C)C(=O)N1CCCC(N1)C(=O)OCC(C)(C)C2
- pIC50 (second compound 0.000949 µM): < 6.00
- pIC50 (second compound 0.003 µM): < 6.00
- pIC50 (second compound 0.00949 µM): < 6.00
- pIC50 (second compound 0.03 µM): 7.12
- pIC50 (second compound 0.0949 µM): > 8.50
- pIC50 (second compound 0.3 µM): > 8.50
- viability, T/C (second compound 0.000949 µM, first compound 0.00316 µM): 94.2%
- viability, T/C (second compound 0.000949 µM, first compound 0.01 µM): 87.4%
- viability, T/C [1]: 95.4%
- viability, T/C [2]: 94.4%
- viability, T/C [3]: 92.8%
- viability, T/C [4]: 59.9%
- viability, T/C (second compound 0.003 µM, first compound 0.00316 µM): 97.9%
- viability, T/C (second compound 0.003 µM, first compound 0.01 µM): 105%
- viability, T/C [7]: 95.7%
- viability, T/C [8]: 85.2%
- viability, T/C [9]: 83.3%
- viability, T/C [10]: 59.2%
- viability, T/C (second compound 0.00949 µM, first compound 0.00316 µM): 105%
- viability, T/C (second compound 0.00949 µM, first compound 0.01 µM): 74.5%
- viability, T/C [13]: 84.2%
- viability, T/C [14]: 67.2%
- viability, T/C [15]: 67.8%
- viability, T/C [16]: 49.6%
- viability, T/C (second compound 0.03 µM, first compound 0.00316 µM): 65%
- viability, T/C (second compound 0.03 µM, first compound 0.01 µM): 62.9%
- viability, T/C [19]: 45.4%
- viability, T/C [20]: 53.3%
- viability, T/C [21]: 47.6%
- viability, T/C [22]: 39.7%
- viability, T/C (second compound 0.0949 µM, first compound 0.00316 µM): 51.9%
- viability, T/C (second compound 0.0949 µM, first compound 0.01 µM): 41.2%
- viability, T/C [25]: 50.4%
- viability, T/C [26]: 37%
- viability, T/C [27]: 44.4%
- viability, T/C [28]: 36.5%
- viability, T/C (second compound 0.3 µM, first compound 0.00316 µM): 37.4%
- viability, T/C (second compound 0.3 µM, first compound 0.01 µM): 41.4%
- viability, T/C [31]: 38.6%
- viability, T/C [32]: 38.8%
- viability, T/C [33]: 42.6%
- viability, T/C [34]: 41.9%

From PubChem BioAssay AID2060888 (Molecular Pharmacology Branch, DTP, NCI, 2025)
